Measurements as given in article PMC9276676, “Difluoromethylornithine (DFMO) and AMXT 1501 inhibit capsule biosynthesis in pneumococci” (Scientific Reports, 2022).

Assays:
[1] = tested on: S. pneumoniae TIGR4; type: cell-based, Streptococcus pneumoniae; conditions: DFMO 137 mM (1/2 MIC), n = 5
Protocol: This was done to directly compare possible changes in intracellular concentrations of polyamines and capsule precursors as a result of DFMO inhibition of polyamine synthesis to the earlier report where polyamine synthesis was affected via gene deletion in TIGR4[24]. […] Cells were harvested (5000×g, 10 min, 4 °C), re-suspended in extraction solvent [40% acetonitrile, 40% methanol, 20% water with formic acid (0.1 M)] and transferred to bead-beater tubes (MP Biomedicals, Irvine, CA, USA). Cells were lysed using a FastPrep-24™ Classic (45 s, 6.5 m/s, RT, 3 times) (MP Biomedicals, Irvine, CA, USA) and incubated on ice (5 min after each spin). TIGR4 lysates were clarified (6000×g, 5 min, 4 °C), and metabolite differentiation and detection were performed using published protocols[28],[29]. Liquid chromatography-mass spectrometry-based (LC–MS) metabolomic analysis was performed with an Agilent Accurate Mass 6230 TOF coupled with an Agilent 1290 LC system using a Cogent Diamond Hydride Type C column. Briefly, the mobile phase consisted of the following: solvent A (ddH2O with 0.2% formic acid) and solvent B (acetonitrile with 0.2% formic acid). The gradient used was as follows: 0–2 min, 85% B; 3–5 min, 80% B; 6–7 min, 75% B; 8–9 min, 70% B; 10–11.1 min, 50% B; 11.1–14 min 20% B; 14.1–24 min 5% B followed by a 10 min re-equilibration period at 85% B at a flow rate of 0.4 mL/min. Mass axis dynamics was calibrated by continuous infusion of a reference mass solution using an isocratic pump. […] Metabolite identities were searched for using a mass tolerance of < 0.005 Da. Metabolite concentrations from the 5 biological replicates were normalized to biomass based on measurement of residual peptide content in individual samples using the Pierce BCA Protein Assay kit (Thermo Fisher Scientific, Waltham, MA, USA). Data were analyzed using Profinder B.07.00 software (Agilent Technologies, Santa Clara, CA, USA). Extracted molecular features detected in the mass analyzer were identified using accurate mass values and used to generate empirical molecular formulae using an in-house metabolite database that included known intermediates, amino acid precursors and polyamines and their derivatives. Statistical analysis of metabolite peak intensity data was performed using MetaboAnalyst 4.0[30]. Data were normalized (quantile), log transformed and significant fold change between WT and DFMO-treated WT were identified by Student’s t-test (p ≤ 0.05).

[2] = parameters: method as in PMID 30262852; conditions: human ref 35; cited from earlier work
[3] = tested on: S. pneumoniae serotype 2 (D39); assay: DFMO susceptibility and growth in THY (OD600, MIC); type: cell-based, Streptococcus pneumoniae; parameters: Growthrate: unit not given here; conditions: D39
Protocol: (§1) S. pneumoniae serotypes 4 (TIGR4), 2 (D39), 19F (EF3030) and 3 (WU2) were cultured in Todd Hewitt broth supplemented with yeast extract (THY). Supplementation with DFMO ranging from 1.1 to 549 mM was carried out in triplicate in a 96-well plate and incubated at 37 °C and 5% CO2 in a Cytation™ 5 cell imaging multi-mode reader (BioTek, Winooski, VT). The change in optical density at 600 nm (OD600) was measured every hour for 24 h and used to determine the minimum inhibitory concentration (MIC) of DFMO. The optical density data was analyzed using GrowthRates 4.0 software. To determine whether DFMO at sub-MIC is bacteriostatic or lethal to pneumococcal cells, all strains were cultured in the presence or absence of 1/2 MIC DFMO. OD600 was measured every hour and CFU were enumerated on a blood agar plate (BAP) every 2 h over an 8 h incubation period.

[4] = tested on: S. pneumoniae serotype 19F (EF3030); assay: DFMO susceptibility and growth in THY (OD600, MIC); type: cell-based, Streptococcus pneumoniae; parameters: Growthrate: unit not given here
Protocol: as §1

Structure (SMILES): NCCC[C@](N)(C(=O)O)C(F)F [DFMO, α-difluoromethylornithine]
- 5,10-methylenetetrahydrofolate, fold change TIGR4+DFMO /TIGR4 [1]: 4.4
- 5-phospho-α-D-ribose 1-diphosphate (PRPP), fold change TIGR4+DFMO /TIGR4 [1]: 3.8
- 6-Phosphogluconate, fold change TIGR4+DFMO /TIGR4 [1]: 7.8
- Agmatine, fold change TIGR4+DFMO /TIGR4 [1]: -2.0
- Arginine, fold change TIGR4+DFMO /TIGR4 [1]: 1.1
- Cadaverine, fold change TIGR4+DFMO /TIGR4 [1]: -1.5
- Fructose 6-phosphate, fold change TIGR4+DFMO /TIGR4 [1]: -16.8
- Fucose, fold change TIGR4+DFMO /TIGR4 [1]: -1.3
- GSH, fold change TIGR4+DFMO /TIGR4 [1]: -23.2
- GSSG, fold change TIGR4+DFMO /TIGR4 [1]: -41.3
- Galactose 1-phosphate, fold change TIGR4+DFMO /TIGR4 [1]: -16.8
- Glucosamine 6-phosphate, fold change TIGR4+DFMO /TIGR4 [1]: -21.0
- Glucose 6-phosphate, fold change TIGR4+DFMO /TIGR4 [1]: 10.6
- Glyceraldehyde 3-phosphate, fold change TIGR4+DFMO /TIGR4 [1]: -308.6
- Lysine, fold change TIGR4+DFMO /TIGR4 [1]: -1.7
- Methionine, fold change TIGR4+DFMO /TIGR4 [1]: -1.8
- N-Acetylspermidine, fold change TIGR4+DFMO /TIGR4 [1]: -1.6
- NADH, fold change TIGR4+DFMO /TIGR4 [1]: -358.8
- NADPH, fold change TIGR4+DFMO /TIGR4 [1]: 25.1
- Ornithine, fold change TIGR4+DFMO /TIGR4 [1]: -1.3
- Putrescine, fold change TIGR4+DFMO /TIGR4 [1]: -1.9
- Pyruvate, fold change TIGR4+DFMO /TIGR4 [1]: -1.74
- S-adenosylmethionine, fold change TIGR4+DFMO /TIGR4 [1]: 64.2
- Sedoheptulose 7-phosphate, fold change TIGR4+DFMO /TIGR4 [1]: -13.5
- Spermidine, fold change TIGR4+DFMO /TIGR4 [1]: -3.1
- Spermine, fold change TIGR4+DFMO /TIGR4 [1]: 26.6
- Tetrahydrofolate, fold change TIGR4+DFMO /TIGR4 [1]: -1.4
- UDP, fold change TIGR4+DFMO /TIGR4 [1]: -53.1
- UDP-Galactose, fold change TIGR4+DFMO /TIGR4 [1]: -66.5
- UDP-Glucose, fold change TIGR4+DFMO /TIGR4 [1]: -66.5
- UDP-N-acetylfucosamine, fold change TIGR4+DFMO /TIGR4 [1]: 2.3
- UDP-N-acetylgalactosamine, fold change TIGR4+DFMO /TIGR4 [1]: -18.9
- UDP-N-acetylglucosamine, fold change TIGR4+DFMO /TIGR4 [1]: -18.9
- UDP-N-acetylmannosamine, fold change TIGR4+DFMO /TIGR4 [1]: -18.9
- UDP-N-acetylmuramic acid, fold change TIGR4+DFMO /TIGR4 [1]: -259.2
- UMP, fold change TIGR4+DFMO /TIGR4 [1]: -2.1
- safe dosage for use in human [2]: around 1.0 g/m^2/day
- safe dosage for use in human, as concentration [2]: 1 to 2 mM
- difference in growth rate in presence or absence of DFMO (GrowthRates software) [3]: did not identify any significant differences
- growth curve versus control ([3]; 1/2 MIC DFMO (137 mM)): longer lag phase and a lower maximal O.D
- Growthrate ([3]; DFMO 0.2 µg/µL): 0.025
- Max OD ([3]; DFMO 0.2 µg/µL): 1.555
- Growthrate ([3]; DFMO 0.4 µg/µL): 0.019
- Max OD ([3]; DFMO 0.4 µg/µL): 1.573
- Growthrate ([3]; DFMO 0.8 µg/µL): 0.018
- Max OD ([3]; DFMO 0.8 µg/µL): 1.615
- Growthrate ([3]; DFMO 1.6 µg/µL): 0.040
- Max OD ([3]; DFMO 1.6 µg/µL): 1.648
- Growthrate ([3]; DFMO 3.1 µg/µL): 0.039
- Max OD ([3]; DFMO 3.1 µg/µL): 1.642
- Growthrate ([3]; DFMO 6.3 µg/µL): 0.037
- Max OD ([3]; DFMO 6.3 µg/µL): 1.647
- Growthrate ([3]; DFMO 12.5 µg/µL): 0.036
- Max OD ([3]; DFMO 12.5 µg/µL): 1.613
- Growthrate ([3]; DFMO 25.0 µg/µL): 0.029
- Max OD ([3]; DFMO 25.0 µg/µL): 0.985
- Growthrate ([3]; DFMO 50.0 µg/µL): 0.000
- Max OD ([3]; DFMO 50.0 µg/µL): 0.000
- Growthrate ([3]; DFMO 100.0 µg/µL): 0.000
- Max OD ([3]; DFMO 100.0 µg/µL): 0.000
- difference in growth rate in presence or absence of DFMO (GrowthRates software) [4]: did not identify any significant differences
- Growthrate ([4]; DFMO 0.2 µg/µL): 0.035
- Max OD ([4]; DFMO 0.2 µg/µL): 1.413
- Growthrate ([4]; DFMO 0.4 µg/µL): 0.021
- Max OD ([4]; DFMO 0.4 µg/µL): 1.458
- Growthrate ([4]; DFMO 0.8 µg/µL): 0.037
- Max OD ([4]; DFMO 0.8 µg/µL): 1.485
- Growthrate ([4]; DFMO 1.6 µg/µL): 0.037
- Max OD ([4]; DFMO 1.6 µg/µL): 1.495
- Growthrate ([4]; DFMO 3.1 µg/µL): 0.036
- Max OD ([4]; DFMO 3.1 µg/µL): 1.517
- Growthrate ([4]; DFMO 6.3 µg/µL): 0.035
- Max OD ([4]; DFMO 6.3 µg/µL): 1.538
- Growthrate ([4]; DFMO 12.5 µg/µL): 0.030
- Max OD ([4]; DFMO 12.5 µg/µL): 1.513
- Growthrate ([4]; DFMO 25.0 µg/µL): 0.040
- Max OD ([4]; DFMO 25.0 µg/µL): 1.319
- Growthrate ([4]; DFMO 50.0 µg/µL): 0.000
- Max OD ([4]; DFMO 50.0 µg/µL): 0.000
- Growthrate ([4]; DFMO 100.0 µg/µL): 0.000
- Max OD ([4]; DFMO 100.0 µg/µL): 0.000
